Data on 3 molecules can be found in article PMC5620609 (Pharmaceuticals, 2017).

One data set deals with total DNMT. Kind of data set: Total DNMT inhibition, colorimetric assay in HCT-116 cells. It counts as cell-based, human. The following applies: 24 h. Here is the method: Total DNMT activity was measured in the colon cancer cell line HCT-116. The assay was performed using the EpiQuick^TM DNA Methyltransferase Activity/Inhibition Assay Kit (Epigentek, Brooklyn, NY, USA). […] Assays were performed three times in triplicate.

The test system of data set [1] is human colon cancer cell line HCT-116. Kind of data set: In vitro growth inhibition (CellTiter-Glo), HCT-116. It counts as cell-based. Particulars: HCT 116 TP53(-/-), read-out: GI50 (concentration of drug that inhibited 50% of cell growth), 72 h exposure. Here is the method:
Cells were grown in an appropriate medium for the cell line of interest; 96 well plates of each cell line were seeded with 5000 cells per well and left overnight. Drug exposed cells were incubated at 37 °C for 72 h. At the end of the 72 h exposure period, plates were removed for the CellTiter-Glo® assay. Luminescence was recorded on a Synergy 4.0. Assays were performed in triplicate.
Background: ATP-based viability assays read luminescence as a measure of living cells.

The next data set concerns the target T1, RNR (Homo sapiens, UniProt P23921).
T1 construct: endogenous in cells; host or cells: HeLa
T1 sequence (P23921 1-792): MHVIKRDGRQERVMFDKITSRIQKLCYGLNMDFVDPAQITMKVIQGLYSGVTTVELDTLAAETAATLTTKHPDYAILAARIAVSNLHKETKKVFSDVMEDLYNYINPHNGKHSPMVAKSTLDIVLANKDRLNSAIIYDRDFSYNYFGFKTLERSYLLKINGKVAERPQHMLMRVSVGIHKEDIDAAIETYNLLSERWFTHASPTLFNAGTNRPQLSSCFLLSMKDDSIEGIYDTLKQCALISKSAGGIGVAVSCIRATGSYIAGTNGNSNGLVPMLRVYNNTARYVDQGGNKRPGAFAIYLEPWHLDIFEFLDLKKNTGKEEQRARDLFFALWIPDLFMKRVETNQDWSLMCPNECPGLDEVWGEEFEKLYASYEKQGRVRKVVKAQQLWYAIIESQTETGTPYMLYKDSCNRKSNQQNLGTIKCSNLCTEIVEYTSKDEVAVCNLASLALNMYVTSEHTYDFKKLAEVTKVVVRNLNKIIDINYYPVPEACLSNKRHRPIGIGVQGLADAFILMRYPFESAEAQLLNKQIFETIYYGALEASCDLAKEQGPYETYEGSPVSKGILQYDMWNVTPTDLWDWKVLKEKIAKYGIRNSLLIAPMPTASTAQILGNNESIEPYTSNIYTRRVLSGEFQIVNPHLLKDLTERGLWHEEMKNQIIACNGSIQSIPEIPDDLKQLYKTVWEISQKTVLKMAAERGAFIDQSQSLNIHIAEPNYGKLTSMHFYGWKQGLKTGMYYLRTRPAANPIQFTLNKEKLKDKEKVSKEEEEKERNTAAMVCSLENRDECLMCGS
T1 sequence (P31350 1-389 partner): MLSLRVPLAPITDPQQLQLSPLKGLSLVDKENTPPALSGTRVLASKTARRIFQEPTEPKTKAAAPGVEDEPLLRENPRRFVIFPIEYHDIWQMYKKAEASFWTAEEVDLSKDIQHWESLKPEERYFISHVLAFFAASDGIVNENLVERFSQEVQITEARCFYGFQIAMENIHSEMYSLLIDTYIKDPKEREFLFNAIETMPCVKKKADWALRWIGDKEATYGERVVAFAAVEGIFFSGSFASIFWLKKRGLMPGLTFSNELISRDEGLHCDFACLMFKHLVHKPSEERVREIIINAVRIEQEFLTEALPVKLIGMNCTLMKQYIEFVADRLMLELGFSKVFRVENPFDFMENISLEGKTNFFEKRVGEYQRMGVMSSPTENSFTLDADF
Kind of data set: RNR inhibition whole cell assay (HPLC of nucleotides from HeLa cell extracts). Format: cell-based. Particulars: 50 µM, 16 h. The source says: Gemcitabine was used as a positive control.
The method used to extract and quantitate nucleotides followed previously reported procedures.

For data set [2] the following is noted: reported for decitabine; cited from earlier work.
Another data set is described as follows: in vivo. The following applies: mouse, iv, 5 mg/kg.

The half-life is the time in which the quantity being followed falls by half.

Where only a bound is given, the exact number is not on record here.

Procedure for in vivo: Three mice were placed in a dose group on the first day of treatment (Day 1). […] Animals were observed daily for mortality and moribundity. Body weights were measured daily starting on day 1.

For the molecule `Nc1ncn([C@@H]2O[C@H](CO)[C@@H](O)[C@H]2O)c(=O)n1` [5-azacytidine], the “inhibition of total DNMT” value in the data set on total DNMT (1 µM, mean of 3 experiments) stood at 19.2%; in the data set with total DNMT (10 µM), 48.6%. Besides, in data set [1], the GI50 was found to be 620 nM.

As for `Nc1ccn([C@@H]2O[C@H](CO)[C@@H](O)C2(F)F)c(=O)n1` [Gemcitabine, gemcitabine, reference compound], on RNR, the ADP concentration is 15,639, the ATP concentration is 26,296, the CTP concentration was 1297 and the GTP concentration was 2036. In addition, on RNR, the UTP concentration came to 4801; the “dATP, peak area” value was 0 AU; the “dGDP, peak area” value is listed as 7.95 AU; the “dTDP, peak area” value came to 43.4 AU. In addition, the “dUTP, peak area” value at RNR was 5.3 AU.

For the molecule `Nc1ncn([C@H]2C[C@H](O)[C@@H](CO)O2)c(=O)n1` [decitabine, 5-aza-2′-deoxycytidine], in data set [2], the half-life is listed as 30 min. In “in vivo”, this molecule registered an MTD at 3 weeks of less than 5 mg/kg.
